Here are results for one substance from patent publication US20250136629A1, “SELF-ASSEMBLED NANOPARTICLES FOR PHOTOTHERMAL THERAPY” (The University of Hong Kong, priority 2023, published 2025).

A short description of the data set: Air stability of the complexes (observation). Type of data set: physicochemical.

For the substance [Fe(II)-ppy-tpy-Cl] [Complex R], the air stability entry is “slightly air-sensitive in both the solid and solution states”.
